Source: publication PMC4987671, “Inhibition of cytochrome P450 3A by acetoxylated analogues of resveratrol in in vitro and in silico models” (Scientific Reports, 2016)
Like-named read-outs stand apart in the source and are kept apart here.

Target: CYP3A4 (Homo sapiens, UniProt P08684)
Assay: inhibition of testosterone metabolism in Caco-2/TC7 cells (HPLC)
Type: cell-based
[1] = read-out: % inhibition at 10 μM

CYP3A4, sequence (P08684 2-503): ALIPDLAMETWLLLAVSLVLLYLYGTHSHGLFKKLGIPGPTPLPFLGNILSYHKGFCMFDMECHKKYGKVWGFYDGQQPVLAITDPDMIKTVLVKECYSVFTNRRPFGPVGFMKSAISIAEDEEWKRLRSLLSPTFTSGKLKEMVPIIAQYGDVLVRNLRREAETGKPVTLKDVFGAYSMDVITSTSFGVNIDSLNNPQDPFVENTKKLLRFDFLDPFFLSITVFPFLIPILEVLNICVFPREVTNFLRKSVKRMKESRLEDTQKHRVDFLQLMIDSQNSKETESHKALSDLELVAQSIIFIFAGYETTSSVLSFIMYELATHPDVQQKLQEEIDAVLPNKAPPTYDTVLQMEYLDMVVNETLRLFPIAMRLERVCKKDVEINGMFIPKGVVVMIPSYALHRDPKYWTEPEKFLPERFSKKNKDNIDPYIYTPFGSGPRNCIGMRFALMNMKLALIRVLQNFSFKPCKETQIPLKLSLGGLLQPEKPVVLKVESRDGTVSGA

Structure (SMILES) | inhibition at 10 µM [1] | inhibition at 10 µM
CC(=O)Oc1ccc(/C=C/c2cc(O)cc(OC(C)=O)c2)cc1 [DAR, 3,4′-acetoxy-5-hydroxy-stilbene] | 45% | 
CC(=O)Oc1ccc(/C=C/c2cc(O)cc(O)c2)cc1 [MAR, 4′-acetoxy-3,5-hydroxy-stilbene] | 24% | 
CC(=O)Oc1ccc(/C=C/c2cc(OC(C)=O)cc(OC(C)=O)c2)cc1 [TAR, 3,4′,5-acetoxystilbene] | 10% | 
CC(=O)N1CCN(c2ccc(OC[C@H]3COC(Cn4ccnc4)(c4ccc(Cl)cc4Cl)O3)cc2)CC1 (some centres unmarked) [ketoconazole, reference compound] |  | ~80%
Oc1ccc(/C=C/c2cc(O)cc(O)c2)cc1 [resveratrol, trans-3,4′,5-trihydroxystilbene] | > 80% | 
